Ends that are not written are not given here.
Experiments:
[1] = test system: splenic CD8+ T cells from DENV3 (D3S5CX) infected HLA transgenic IFN-α/βR−/− mice; experiment: IFNγ ELISPOT, CD8+ T cells of DENV3 (D3S5CX) infected HLA class I transgenic IFN-α/βR−/− mice; type: cell-based, mouse; conditions: day 7 after DENV3 D3S5CX, SFC/10^6 T cells
HLA B*0702 = biological target: T1, HLA B*0702 (Homo sapiens, UniProt P01889); experiment: MHC peptide-binding assay, purified B*0702
T1 construct: made in house

HLA A*0201 = biological target: T2, HLA A*0201 (Homo sapiens, UniProt P04439, D140Y/D185E/D98H/E176V/E277Q/G131W/G231S/I119V/I121R/I166T/I218V/L300P/L318F/N151K/N90K/P208A/P217A/Q86G/Q94H/R138H/R169H/T345S); experiment: MHC peptide-binding assay, purified A*0201
T2 construct: made in house

[2] = test system: splenic CD4+ T cells from DENV3 (D3S5CX) infected DRB1*0101 transgenic IFN-α/βR−/− mice; experiment: IFNγ ELISPOT, CD4+ T cells of DENV3 (D3S5CX) infected DRB1*0101 transgenic IFN-α/βR−/− mice; type: cell-based, mouse; conditions: day 7 after DENV3 D3S5CX, SFC/10^6 T cells
[3] = biological target: purified HLA molecules (corresponding predicted allele); experiment: MHC peptide-binding assay, summary over alleles; set-up: species or system human
[4] = test system: PBMC of healthy adult blood donors from Colombo, Sri Lanka; experiment: Ex vivo IFNγ ELISPOT, HLA-matched PBMC of Sri Lankan blood donors; type: cell-based, human; set-up: Total Response per epitope: unit not given here; conditions: for # donors responded: number of donors responding to the epitope
HLA DRB1*0101 = biological target: T3, HLA DRB1*0101 (Homo sapiens, UniProt P01903+P01911, A100R/D57E/F55L/F60I/F76Y/I96L/L162R/M171V/P40L/Q125E/R42F/V115G/Y59C); experiment: MHC peptide-binding assay, purified DRB1*0101
T3 construct: made in house

[5] = HLA B*0702 transgenic IFN-α/βR−/− mice
[6] = HLA A*0201 transgenic IFN-α/βR−/− mice
[7] = IFNγ ELISPOT response summed over responding donors, per epitope
[8] = HLA-matched PBMC, proteome-wide screen

With EPDGPTPEL [NS31648-1656] the “T cell response [SFC]” value [1, 5] was 512 SFC and the IC50 (HLA B*0702) was 299 nM.
In the case of FAGKTVWFV [NS31832-1840], the “T cell response [SFC]” value [1, 6] is reported as 415 SFC and the IC50 (HLA A*0201) is reported as 11 nM.
With FLAIPPTAGV [Epitope C57-66] the “T cell response [SFC]” value [1, 6] was 868 SFC and the IC50 (HLA A*0201) was 3.6 nM.
For SLAAIANQAV [NS4B2311-2320], the “T cell response [SFC]” value [1, 6] was 858 SFC and the IC50 (HLA A*0201) was 6.7 nM.
In the case of `CSCC[C@H](N)C(=O)N1CCC[C@H]1C(=O)N[C@H](C(=O)N[C@H](C(=O)N[C@@H](C)C(=O)N[C@@H](C)C(=O)N[C@@H](CO)C(=O)N[C@@H](C)C(=O)N[C@@H](C)C(=O)N[C@@H](CCC(N)=O)C(=O)O)[C@@H](C)O)C(C)C` [NS31925-1934], the “T cell response [SFC]” value [1, 5] is reported as 690 SFC.
In the case of ILWENNIKL [NS1854-862], the “T cell response [SFC]” value [1, 6] is reported as 2238 SFC and the IC50 (HLA A*0201) is reported as 2.7 nM.
For VPMAGPLVAG [NS2B1373-1382], the “T cell response [SFC]” value [1, 5] was 28 SFC and the IC50 (HLA B*0702) was 115 nM.
For RPMPGTRKV [NS52860-2868], the “T cell response [SFC]” value [1, 5] was 461 SFC and the IC50 (HLA B*0702) was 2.7 nM.
In the case of FLAHYIGTSL [Epitope M254-263], the “T cell response [SFC]” value [1, 6] is reported as 1363 SFC and the IC50 (HLA A*0201) is reported as 4.8 nM.
In the case of `CC[C@H](C)[C@H](NC(=O)[C@H](CCSC)NC(=O)[C@H](CC(C)C)NC(=O)CNC(=O)[C@H](CC(C)C)NC(=O)[C@H](CC(C)C)NC(=O)[C@H](CC(C)C)NC(=O)[C@H](CC(C)C)NC(=O)[C@@H](N)[C@@H](C)O)C(=O)N[C@@H](CC(C)C)C(=O)O` [NS4A2150-2159], the “T cell response [SFC]” value [1, 6] is reported as 990 SFC.
For `CC[C@H](C)[C@H](NC(=O)[C@H](CO)NC(=O)[C@@H](NC(=O)[C@H](CC(C)C)NC(=O)CN)C(C)C)C(=O)N[C@@H](CC(C)C)C(=O)N[C@@H](C)C(=O)N[C@@H](CO)C(=O)N[C@@H](CO)C(=O)N[C@@H](CC(C)C)C(=O)N[C@@H](CC(C)C)C(=O)N[C@@H](CCCNC(=N)N)C(=O)N[C@@H](CC(N)=O)C(=O)N[C@@H](CC(=O)O)C(=O)N[C@H](C(=O)O)C(C)C` [NS2B1359-1373], the “T cell response [SFC]” value [2] was 241 SFC.
`CC[C@H](C)[C@H](NC(=O)[C@H](Cc1ccccc1)NC(=O)[C@@H](NC(=O)[C@@H](N)C(C)C)[C@@H](C)CC)C(=O)N[C@@H](CC(C)C)C(=O)N[C@@H](CC(C)C)C(=O)N[C@@H](CCSC)C(=O)N[C@@H](CC(C)C)C(=O)N[C@H](C(=O)N[C@H](C(=O)N1CCC[C@H]1C(=O)N[C@@H](CO)C(=O)N[C@@H](CCSC)C(=O)N[C@H](C(=O)N[C@@H](CCSC)C(=O)O)[C@@H](C)O)[C@@H](C)O)C(C)C` [Epitope M268-282] was tested, and the “T cell response [SFC]” value [2] was 53 SFC.
With `CC[C@H](C)[C@H](NC(=O)[C@H](CC(C)C)NC(=O)[C@H](CC(C)C)NC(=O)[C@H](C)NC(=O)[C@@H](NC(=O)[C@H](CCCCN)NC(=O)[C@H](CC(C)C)NC(=O)[C@H](CC(C)C)NC(=O)[C@@H](N)C(C)C)[C@@H](C)O)C(=O)N[C@H](C(=O)O)C(C)C` [NS2B1444-1453] the “T cell response [SFC]” value [1, 6] was 203 SFC.
In the case of NPEIEDDIF, the IC50 ([3]; allele B*3501) is reported as 518 nM, the “Total Response per epitope” value [4, 7] is reported as 3390.0 and the “# donors responded” value [4, 8] is reported as 10. For the same compound, the “T cell response [SFC]” value ([4]; per epitope, ex vivo IFNγ SFC/10^6 PBMC) was 3390 SFC and the “# of responders” value ([4]; responding donors, HLA allele(s)) was 10.
For GEGLHKLGY, the IC50 ([3]; allele B*4403) was 281 nM, the “# donors responded” value ([4]; restricting HLA allele and serotype as given) was 2 and the “Total Response per epitope” value ([4]; total over responding donors, restricting HLA allele and serotype as given) was 413.3.
For `CC[C@H](C)[C@H](NC(=O)[C@H](C)NC(=O)[C@@H](N)CCCNC(=N)N)C(=O)N[C@@H](Cc1c[nH]c2ccccc12)C(=O)N[C@@H](Cc1ccc(O)cc1)C(=O)N[C@@H](CCSC)C(=O)N[C@@H](Cc1c[nH]c2ccccc12)C(=O)N[C@@H](CC(C)C)C(=O)NCC(=O)N[C@@H](C)C(=O)N[C@@H](CCCNC(=N)N)C(=O)N[C@@H](Cc1ccc(O)cc1)C(=O)N[C@@H](CC(C)C)C(=O)N[C@@H](CCC(=O)O)C(=O)N[C@@H](Cc1ccccc1)C(=O)O` [NS52967-2981], the “T cell response [SFC]” value [2] was 586 SFC and the IC50 (HLA DRB1*0101) was 48 nM.
With `CC(C)C[C@H](NC(=O)[C@@H](N)CCCCN)C(=O)N[C@@H](CC(N)=O)C(=O)N[C@@H](CC(=O)O)C(=O)N[C@@H](Cc1c[nH]c2ccccc12)C(=O)N[C@@H](CC(=O)O)C(=O)N[C@@H](Cc1ccccc1)C(=O)N[C@H](C(=O)N[C@H](C(=O)O)C(C)C)C(C)C` [NS31876-1884] the “T cell response [SFC]” value [1, 6] was 333 SFC and the IC50 (HLA A*0201) was 1.8 nM.
With `CSCC[C@H](NC(=O)[C@H](CCCCN)NC(=O)[C@H](CC(C)C)NC(=O)[C@@H](NC(=O)[C@@H](N)CCCNC(=N)N)C(C)C)C(=O)N[C@H](C(=O)N[C@@H](CCC(=O)O)C(=O)N1CCC[C@H]1C(=O)N[C@@H](Cc1c[nH]c2ccccc12)C(=O)O)C(C)C` the IC50 ([3]; allele B*5801) was 1 nM, the “Total Response per epitope” value [4, 7] was 150.0 and the “# donors responded” value [4, 8] was 1.
`CC(C)C[C@H](NC(=O)[C@H](CCC(=O)O)NC(=O)[C@H](CCCCN)NC(=O)[C@H](CCCNC(=N)N)NC(=O)[C@H](CC(N)=O)NC(=O)[C@H](Cc1c[nH]c2ccccc12)NC(=O)[C@@H](NC(=O)[C@@H]1CCCN1C(=O)[C@@H](N)[C@@H](C)O)[C@@H](C)O)C(=O)O` [Epitope E509-517] was tested, and the “T cell response [SFC]” value [1, 5] was 1193 SFC.
For YLALIATFKI [NS2A1202-1211], the “T cell response [SFC]” value [1, 6] was 1089 SFC and the IC50 (HLA A*0201) was 10 nM.

Source: patent US10308689B2, “Dengue virus (DV) polypeptide sequences, T cell epitopes and methods and uses thereof” (LA JOLLA INSTITUTE FOR ALLERGY AND IMMUNOLOGY, priority 2010, dated 2019)
